PubChem BioAssay (NCI)
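Cultured in 96-well plates, cells were exposed to test compound for 48 hours across five concentrations. Here, GI50 denotes the concentration required for 50% inhibition of growth. Definition used: TGI = concentration required for complete inhibition of growth.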

Experiments:
Assay in all cases: NCI-60 cell line screen, 48 h
[1] = test system: LOX IMVI melanoma
[2] = test system: BT-549 breast
[3] = test system: IGROV1 ovarian
[4] = test system: SF-539 CNS
[5] = test system: HOP-92 NSCLC
[6] = test system: M14 melanoma
[7] = test system: SF-268 CNS
[8] = test system: OVCAR-4 ovarian
[9] = test system: CCRF-CEM leukemia
[10] = test system: MALME-3M melanoma
[11] = test system: SF-295 CNS
[12] = test system: NCI-H460 lung
[13] = test system: A549 NSCLC
[14] = test system: NCI/ADR-RES ovarian
[15] = test system: SW-620 colon
[16] = test system: PC-3 prostate
[17] = test system: HT29 colon
[18] = test system: OVCAR-5 ovarian
[19] = test system: SNB-19 CNS
[20] = test system: UACC-62 melanoma
[21] = test system: HS 578T breast
[22] = test system: DU-145 prostate
[23] = test system: OVCAR-8 ovarian
[24] = test system: SK-MEL-5 melanoma
[25] = test system: NCI-H23 lung
[26] = test system: RPMI-8226 leukemia
[27] = test system: UACC-257 melanoma
[28] = test system: MDA-MB-435
[29] = test system: 786-0 renal
[30] = test system: KM12 colon
[31] = test system: HCT-15 colon
[32] = test system: CAKI-1 renal
[33] = test system: K-562 leukemia
[34] = test system: UO-31 renal
[35] = test system: MCF7 breast
[36] = test system: COLO 205 colon
[37] = test system: RXF 393 renal
[38] = test system: MOLT-4 leukemia
[39] = test system: SNB-75 CNS
[40] = test system: MDA-MB-231 breast
[41] = test system: SN12C renal
[42] = test system: NCI-H522 lung
[43] = test system: HL-60(TB) leukemia
[44] = test system: SK-OV-3 ovarian
[45] = test system: HCC-2998 colon
[46] = test system: OVCAR-3 ovarian
[47] = test system: HCT-116 colon
[48] = test system: TK-10 renal
[49] = test system: NCI-H226 lung
[50] = test system: SK-MEL-2 melanoma
[51] = test system: HOP-62 NSCLC
[52] = test system: U251 CNS
[53] = test system: ACHN renal
[54] = test system: A498 renal
[55] = test system: T-47D breast
[56] = test system: SK-MEL-28 melanoma
[57] = test system: EKVX NSCLC

`CCOC(=O)C1=C(C)N=C2SC=C(c3ccccc3)N2[C@H]1c1cn[nH]c1-c1ccc(Cl)cc1` was tested, and the GI50 [1] was 1.46 µM, the TGI [1] was 3.43 µM and the GI50 [2] was 3.84 µM. The TGI [2] was 13.9 µM, the GI50 [3] was 2.33 µM and the TGI [3] was 7.61 µM. The GI50 [4] was 5.68 µM, the TGI [4] was 18 µM and the GI50 [5] was 2.4 µM. It also gave a TGI [5] of 8.7 µM, a GI50 [6] of 4.37 µM and a TGI [6] of 19.2 µM. For the same compound, the GI50 [7] was 3.65 µM, the TGI [7] was 16.6 µM and the GI50 [8] was 4.66 µM. The TGI [8] was 16.6 µM, the GI50 [9] was 3.12 µM and the TGI [9] was 14 µM. It also gave a GI50 [10] of 1.6 µM, a TGI [10] of 3.45 µM and a GI50 [11] of 7.96 µM. It also gave a TGI [11] of 22.2 µM, a GI50 [12] of 3.36 µM and a TGI [12] of 12.7 µM. For the same compound, the GI50 [13] was 6.73 µM, the TGI [13] was 24.7 µM and the GI50 [14] was 5.97 µM. For the same compound, the TGI [14] was 27.6 µM, the GI50 [15] was 3.84 µM and the TGI [15] was 14.4 µM. For the same compound, the GI50 [16] was 3.98 µM, the TGI [16] was 17.3 µM and the GI50 [17] was 4.32 µM. The TGI [17] was 13.7 µM, the GI50 [18] was 6.06 µM and the TGI [18] was 19.9 µM. For the same compound, the GI50 [19] was 7.65 µM, the TGI [19] was 20.7 µM and the GI50 [20] was 2.85 µM. For the same compound, the TGI [20] was 12.5 µM, the GI50 [21] was 3.68 µM and the TGI [21] was 34.5 µM. It also gave a GI50 [22] of 6.12 µM, a TGI [22] of 18.8 µM and a GI50 [23] of 4.46 µM. It also gave a TGI [23] of 19.6 µM, a GI50 [24] of 3.22 µM and a TGI [24] of 12 µM. For the same compound, the GI50 [25] was 4.64 µM, the TGI [25] was 19.6 µM and the GI50 [26] was 2.65 µM. For the same compound, the TGI [26] was 9.39 µM, the GI50 [27] was 10.1 µM and the TGI [27] was 24.1 µM. It also gave a GI50 [28] of 4.07 µM, a TGI [28] of 15.2 µM and a GI50 [29] of 5.2 µM. The TGI [29] was 17 µM, the GI50 [30] was 4.69 µM and the TGI [30] was 17.5 µM. The GI50 [31] was 3.19 µM, the TGI [31] was 11.7 µM and the GI50 [32] was 1.76 µM. For the same compound, the TGI [32] was 3.56 µM, the GI50 [33] was 3.67 µM and the TGI [33] was 23.2 µM. It also gave a GI50 [34] of 1.39 µM, a TGI [34] of 9.53 µM and a GI50 [35] of 2.7 µM. The TGI [35] was 13.8 µM, the GI50 [36] was 3.53 µM and the TGI [36] was 15.1 µM. For the same compound, the GI50 [37] was 5.32 µM, the TGI [37] was 19.1 µM and the GI50 [38] was 2.29 µM. It also gave a TGI [38] of 7.41 µM, a GI50 [39] of 5.05 µM and a TGI [39] of 18.3 µM. The GI50 [40] was 2.32 µM, the TGI [40] was 7.96 µM and the GI50 [41] was 4.51 µM. For the same compound, the TGI [41] was 17.3 µM, the GI50 [42] was 1.68 µM and the TGI [42] was 3.44 µM. For the same compound, the GI50 [43] was 2.85 µM, the TGI [43] was 7.98 µM and the GI50 [44] was 7.39 µM. It also gave a TGI [44] of 20.1 µM, a GI50 [45] of 6.24 µM and a TGI [45] of 20.4 µM. For the same compound, the GI50 [46] was 3.21 µM, the TGI [46] was 12 µM and the GI50 [47] was 3.11 µM. For the same compound, the TGI [47] was 13.3 µM, the GI50 [48] was 10.2 µM and the TGI [48] was 22.2 µM. It also gave a GI50 [49] of 8.25 µM, a TGI [49] of 46.1 µM and a GI50 [50] of 6.21 µM. It also gave a TGI [50] of 19.3 µM, a GI50 [51] of 7.09 µM and a TGI [51] of 22 µM. It also gave a GI50 [52] of 3.8 µM, a TGI [52] of 16.4 µM and a GI50 [53] of 3.03 µM. For the same compound, the TGI [53] was 11.7 µM, the GI50 [54] was 5.37 µM and the TGI [54] was 18.2 µM. For the same compound, the GI50 [55] was 3.13 µM, the TGI [55] was 22.4 µM and the GI50 [56] was 4.92 µM. For the same compound, the TGI [56] was 16.8 µM, the GI50 [57] was 7.68 µM and the TGI [57] was 22.3 µM.
